# Experimental data published in patent US20160175401A1, “COMPOITIONS AND METHODS FOR MODULATING THERMOGENESIS USING PTH-RELATED AND EGF-RELATED COMPOUNDS” (DANA-FARBER CANCER INSTITUTE INC., priority 2013, published 2016).
# Entries after “also recorded” stand apart in the source; their conditions may differ.
# B1: BTC: recombinant mouse BTC (Asp32-Gln118; Catalog No. 1025-CE-025/CF), R&D Systems (protein)
# chain: DGNTTRTPETNGSLCGAPGENCTGTTPRQKVKTHFSRCPKQYKHYCIHGRCRFVVDEQTPSCICEKGYFGARCERVDLFYLQQDRGQ
# B2: HBEGF: recombinant human HBEGF (Met1-Leu148; Catalog No. 259-HE-050/CF), R&D Systems (protein)
# chain: LVTGESLERLRRGLAAGTSNPDPPTVSTDQLLPLGGGRDRKVRDLQEADLDLLRVTLSSKPQALATPNKEEHGKRKKKGKGLGKKRDPCLRKYKDFCIHGECKYVKELRAPSCICHPGYHGERCHGLSL
# Experiments:
# Assay type in all cases: cell-based, mouse
# [1] = tested on: primary white adipocytes; assay: Thermogenic gene expression (qRT-PCR) in primary white adipocytes; details: for effect on Ucp1 expression / thermogenic gene expression by EGF proteins: 1 μg/mL or 100 ng/mL, primary white adipocytes (FIG. 14A); for effect on Ucp1 expression / thermogenic gene expression by EGF proteins / induce thermogenic gene expression, such as that of Ucp1 and Dio2: 24 hours; for induce thermogenic gene expression, such as that of Ucp1 and Dio2: 1 μg/mL of the protein, primary white adipocytes (FIG. 6, FIG. 19E)
# Protocol: Inguinal SV fractions were obtained from 30-35 days-old male mice by the following procedure. Inguinal fat tissue was dissected, washed with PBS, minced and digested for 45 min at 37° C. in PBS containing 10 mM CaCl, 2.4 U/mL dispase II (Roche), and 1.5 U/mL collagenase D (Roche). Digested tissue was filtered through a 100-μm cell strainer and centrifuged at 600 g for 5 min to pellet the SV cells which were then resuspended in SV culture medium (DMEM/F12 [1:1; Invitrogen] plus glutamax, pen/strep, and 10% FBS), filtered through a 40-μm cell strainer, centrifugation as above, resuspended in SV culture medium and plated. SV cells were grown to confluency for adipocyte differentiation which was induced by the adipogenic cocktail containing 1 μM dexamethasone, 5 μg/mL insulin, […] isobutylmethylxanthine (DMI), and 1 μM rosiglitazone in SV culture medium. 2 days after induction, cells were maintained in SV culture medium containing 5 μg/mL insulin and 1 μM rosiglitazone. Starting at day 6, cells were maintained in SV culture medium only and treated with various molecules for […] and harvested at day 8.
# LLC cells were maintained in DMEM (Invitrogen) with 10% FBS and pen/strep. For conditioned media collection, cells were plated at ⅓ confluency. The following day, medium is changed to FreeStyle expression medium (Invitrogen) which was collected 24 hours later. For concentration of expression medium, LLC conditioned media was filtered using a 3 kilodalton (Kd) cut-off filter (Millipore). Adipocytes were maintained in SV culture media (DMEM/F12 [1:1; Invitrogen] plus glutamax, pen/strep, and 10% FBS) and conditioned media treatment experiments were performed 7 days post-differentiation. When adipocytes were treated with conditioned media for 24 hours, the treatment media were composed of 50% SV culturing medium and 50% LLC conditioned media. When conditioned medium was filtered and concentrated, adipocytes were exposed to 90% SV culturing medium and 10% concentrated LLC conditioned media.
# RNA was extracted from cultured cells or frozen tissue samples using TRIzol (Invitrogen), purified with Qiagen RNAeasy minicolums and reverse transcribed using High Capacity cDNA Reverse Transcription kit (Applied Biosystems). Resulting cDNA was analyzed by RT-qPCR. Briefly, 25 ng of cDNA and […] of each primer were mixed with SYBR® GreenER™ PCR Master Mix (Invitrogen). Reactions were performed in 384-well format using an ABI PRISM® 7900HT instrument (Applied Biosystems). Relative mRNA levels were calculated using the comparative CT method normalized to cyclophilin.
# Inguinal stroma-vascular fractions were obtained from 30-35-day-old male mice using the following procedure: Inguinal fat tissue was dissected, washed with PBS, minced and digested for 45 min at 37° C. in PBS containing 10 mM CaCl2, 2.4 Uml^−1 dispase 11 (Roche) and 1.5 U ml^−1 collagenaseD (Roche). Digested tissue was filtered through a 100-μm cell strainer and centrifuged at 600 g for 5 min to pellet the stroma-vascular cells. The pellets were then resuspended in adipocyte culture medium (DMEM/F2 (1:1, Invitrogen) plus GlutaMAX, penicillin and streptomycin, and 10% FBS), filtered through a 40-μm cell strainer, centrifuged as above, resuspended in adipocyte culture medium and plated. The stroma-vascular cells were grown to confluence for adipocyte differentiation, which was induced by an adipogenic cocktail containing 1 μM dexamethasone, 5 μg ml^−1 insulin, […] isobutylmethylxanthine (DMI) and 1 μM rosiglitazone in adipocyte culture medium. Two days after induction, cells were maintained in adipocyte culture medium containing 5 μg ml^−1 insulin and 1 μM rosiglitazone. Starting on day 6, cells were maintained in adipocyte culture medium only and treated with various molecules for 2-24 h and harvested on day 8.
# LLC cells were maintained in DMEM (Invitrogen) with 10% FBS, and penicillin and streptomycin. For conditioned medium collection, cells were plated at a 1:3 confluence.
# [2] = tested on: PKA substrates CREB and HSL; assay: PKA signalling: protein phosphorylation by western blotting in primary adipocytes
# Protocol: UCP1 protein levels were measured by western blotting in white (FIG. 23A) and brown (FIG. 23B) adipocytes. […] Real-time triplicate readings (upper panel) and their averages (lower panel) are shown (n=4). […] The values are mean±s.e.m. Statistical analysis was conducted using the two-tailed t-test. *, P<0.05; **, P<0.005; ***, P<0.0005, compared with the control group.
# (§1) Cells were homogenized in a lysis buffer containing 50 mMTris (pH 7.4), 500 mM NaCl, 1% NP40, 20% glycerol, 5 mM EDTA and 1 mM phenylmethylsulphonyl fluoride (PMSF) supplemented with protease and phosphatase inhibitor cocktails (Roche). The homogenates were centrifuged at 13,000 r.p.m. for 10 min, and the supernatants were used as whole-cell lysates. Protein concentration was determined by Bio-Rad protein assay, and […] protein lysate was separated in each SDS-PAGE lane. The separated proteins were transferred to a polyvinylidene difluoride (PVDF)membrane, which was blotted with antibodies in TBS containing 0.05% Tween (TBS-T) and 5% BSA. For secondary antibody incubation. TBS-T containing 5% milk was used. Enhanced chemiluminescence (ECL) western blotting substrates (Pierce) were used for visualization of the results.
# [3] = tested on: primary white adipocytes; assay: Cellular oxygen consumption rate (XF24 Extracellular Flux Analyzer, Seahorse) of primary adipocytes
# Protocol: The cellular oxygen consumption rate (OCR) of primary adipocytes was determined using an XF24 Extracellular Flux Analyzer (Seahorse Bioscience). […] Twenty-four hours later, adipocyte culture medium was changed to DMEM lacking NaHCO3 but containing 10 mM glucose, 1 mM pyruvate and the treatment chemicals. The uncoupled and maximal OCRs were determined using […] (carbonyl cyanide p-trifluoromethoxyphenylhydrazone), respectively. Complex-1-dependent respiration was inhibited with 3 μM rotenone. Ex vivo tissue respiration was measured using a Clark electrode (Strathkelvin Instruments) as described in Cohen et al. (2014) Cell 156:304-316. Freshly isolated tissues were briefly minced and transferred to the electrode chamber containing a respiration buffer consisting of 1×DPBS (Delbecco's phosphate-buffered saline), 2% BSA, 25 mM glucose and 1 mM pyruvate. Oxygen consumption values were normalized to tissue weight.
# [4] = tested on: UCP1; assay: UCP1 protein levels by western blotting in primary adipocytes
# Protocol: Cells were homogenized in a lysis buffer containing 50 mM Tris (pH 7.4), 500 mM NaCl, 1% NP40, 20% glycerol, 5 mM EDTA and 1 mM PMSF, supplemented with protease and phosphatase inhibitor cocktails (Roche). The homogenates were centrifuges at 13,000 rpm for 10 min and the supernatants were used as whole cell lysates. Protein concentration was determined by Bio-Rad Bradford assay and 50 μg of proteins were used in each SDS-PAGE run. PVDF membrane was blotted with UCP1 antibody (Abeam) in TBS containing 0.05% Tween and 5% BSA. For secondary antibody incubation, TBS-T containing 5% milk was used. ECL western blotting substrates from Pierce were used for visualization of the results.
# as §1
molecule,measurement,setting,value
"TGFA: recombinant human TGFA (Val40-Ala89; Catalog No. 239-A-100), R&D Systems",effect on Ucp1 expression / thermogenic gene expression by EGF proteins,[1],largest effect on Ucp1 expression
"EREG: recombinant mouse EREG (Val56-Leu101; Catalog No. 1068-EP/CF), R&D Systems","induce thermogenic gene expression, such as that of Ucp1 and Dio2",[1],most potent proteins to induce thermogenic gene expression; also recorded: most potent proteins for inducing thermogenic gene expression; also recorded: induced Ucp1 expression
same,effect on Ucp1 expression / thermogenic gene expression by EGF proteins,[1],largest effect on Ucp1 expression
"O=S(=O)(NCCNC/C=C/c1ccc(Br)cc1)c1cccc2cnccc12 [H89, reference compound]","transcriptional regulation (Ucp1, Dio2) by noradrenaline, PTHrP and PTH","[1]; H89 50 μM white, 30 μM brown adipocytes, factors 2 h (FIG. 23F-23G)",completely inhibited transcriptional regulation
same,PKA signalling,"[2]; H89 50 μM white, 30 μM brown adipocytes, pretreated 1 h (FIG. 23D-23E)",blocked PKA signalling
"NC[C@H](O)c1ccc(O)c(O)c1 [norepinephrine, reference compound]","oxygen consumption, including basal, uncoupled and maximal respiration","[3]; 100 nM NE, 100 ng ml^−1 PTHrP or PTH, 24 h (FIG. 23C)",significantly raised oxygen consumption
same,uncoupled respiration and maximal respiration potential,"[3]; 24 hour treatment, norepinephrine 100 nM, peptides 100 ng/mL, SeaHorse (FIG. 8D)",significantly elevate
same,UCP1 protein levels,"[4]; 100 nM NE, 100 ng ml^−1 PTHrP or PTH, 24 h, primary white and brown adipocytes (FIG. 23A-23B)",comparably increased UCP1 protein levels
same,UCP1 protein levels,"[4]; 24 hour treatment, norepinephrine 100 nM, peptides 100 ng/mL, western blotting (FIG. 8D)",significantly increased
same,phosphorylation of the PKA substrates CREB and HSL,"[2]; 100 nM NE, 100 ng ml^−1 PTHrP or PTH, 30 min, primary white and brown adipocytes (FIG. 23D-23E)",stimulated the phosphorylation
"C=CC(=O)Nc1ccc2ncnc(Nc3ccc(OCc4cccc(F)c4)c(Cl)c3)c2c1 [AST-1306, reference compound]",effect on LLC cell conditioned media thermogenic (browning) activity,"[1]; AST-1306 1 μM, LLC-cell-conditioned medium, 24 h (FIG. 14C, 21A)",does not inhibit or affect; also recorded: does not block; also recorded: largely unaffected
same,"inhibition of BTC, EREG and HBEGF activity (Ucp1 mRNA induction)","[1]; AST-1306 1 μM, BTC, EREG, HBEGF 100 ng/ml each, 24 h (FIG. 14B, 20C)","inhibit BTC, EREG and HBEGF activity; also recorded: completely blocked Ucp1 mRNA induction"
B1,"induce thermogenic gene expression, such as that of Ucp1 and Dio2",[1],most potent proteins to induce thermogenic gene expression; also recorded: most potent proteins for inducing thermogenic gene expression; also recorded: induced Ucp1 expression
B2,"induce thermogenic gene expression, such as that of Ucp1 and Dio2",[1],most potent proteins for inducing thermogenic gene expression; also recorded: induced Ucp1 expression
same,"induce thermogenic gene expression, such as that of Ucp1 and Dio2",[1]; listed as HB-EGF,most potent proteins to induce thermogenic gene expression
same,effect on Ucp1 expression / thermogenic gene expression by EGF proteins,[1],largest effect on Ucp1 expression
